Experimental findings from publication PMC12833730, “Discovery of a First‐in‐Class Covalent Allosteric SHP1 Inhibitor with Immunotherapeutic Activity” (Angewandte Chemie (International Ed. in English), 2025) are described below.

Each structure is given as a SMILES string.

For one assay, the system named is IL-2 in Jurkat T cells. Nature of the assay: IL-2 mRNA / production. Format: cell-based. The settings on record: 20 µM. As for the experimental part:
(§1) Supernatants from lysed cells were reduced, treated with iodoacetamide to cap thiol residues, and digested by trypsin for bottom‐up proteomics analysis. […] LCK is the direct substrate of SHP1 and ERK1/2, and PLCγ is the downstream effector protein of LCK‐mediated TCR signaling. […] Statistical analyses were performed with Graphpad Prism software 10.4.2 through the one‐way ANOVA test using Turkey post‐hoc comparison. ****p < 0.0001 was considered significant.
(§2) To further confirm M029 cellular target engagement, we investigated the effect of M029 on T cell function. SHP1 plays a negative role in T cells, and deletion of SHP1 in T cells lowers the activation threshold and enhances antitumor immunity.^[ [30], [31], [32], [33] ^] Mechanistically, SHP1 attenuates T cell receptor (TCR) signaling via dephosphorylation of the lymphocyte‐specific protein tyrosine kinase LCK.^[ [31], [84], [85], [86] ^] T cell activation leads to increased expression and secretion of interleukin 2 (IL‐2)^[ [87] ^] while the removal of SHP1 in T cells enhances IL‐2 production, cell proliferation, and cytolysis capacity.^[ [30], [32] ^] Accordingly, we sought to assess the impact of targeting SHP1 with M029 on TCR‐LCK signaling and T cell activation. […] M029 also dose‐dependently promoted IL‐2 production (Figure 4c). […] These findings corroborate that the observed increase in LCK phosphorylation and its downstream signaling indeed resulted from SHP1 inhibition by M029.

The subject of assay [1] is LCK, PLCγ and ERK1/2 phosphorylation in Jurkat T cells. In words: TCR-LCK signaling immunoblot. Type of assay: cell-based. The settings on record: 20 µM. On the procedure: as §1, §2
Immunoblotting: Cultured cells were lysed with ice-cold lysis buffer (50 mM Tris, pH 8.0, 150 mM NaCl, 10% Glycerol, 1% Triton-X-100) supplied with phosphatase inhibitor (Bimake) and protease inhibitor mixture (Roche Applied Science). Equal amounts of protein were resolved by SDS-PAGE, transferred to a nitrocellulose membrane, and subjected to immunoblotting. […]
Background: A western blot detects proteins with antibodies after separation by electrophoresis.

Assay [2] addresses T1, SHP1 (Homo sapiens, UniProt P29350).
T1 construct: SHP1, residues 245-543; made in house; host or cells: E. coli BL21(DE3)
In words: IC50 after 10-min/60-min preincubation, DiFMUP phosphatase assay. Format: biochemical. The settings on record: negative control analogs of M029. An excerpt:
The PTP‐catalyzed reaction involves a nucleophilic attack by the conserved active site Cys side chain on the phosphorus atom of phosphotyrosine in the substrate.^[ [53] ^] As such, the PTPs could serve as prime targets for covalent inhibition. Previously described activity‐based probes or covalent ligands for the PTPs are either phosphotyrosine isosteres or thiol‐reactive compounds that covalently modify the active site residues (including the catalytic Cys) and lack sufficient isozyme specificity.^[ [54], [55], [56], [57], [58], [59], [60], [61] ^] Inspired by the resurgence in covalent inhibitors for difficult drug targets, we set out to discover covalent SHP1 inhibitors by screening for electrophilic fragments that bind covalently to SHP1. This strategy is increasingly utilized to identify novel ligands for a target of interest.^[ [47], [62], [63] ^] We assembled a library of 4600 Cys reactive molecules from the Enamine covalent fragment collections containing 49.0% acrylamide, 38.1% chloroacetamide, 5.15% chloromethylketone, 5.20% activated nitrile, 2.10% epoxide, and 0.53% disulfide (Figure S1A). We carried out a high‐throughput biochemical fragment screening of this curated commercially available library against the SHP1 catalytic domain (residues 245–543). Each fragment (500 µM) was incubated with SHP1 (500 nM) for 30 min at room temperature before diluting the reaction 5.5‐fold with 24.45 mM para‐nitrophenyl phosphate (pNPP) to measure the residual PTP activity. This concentration of substrate was chosen to out‐compete any remaining fragment to reduce the inactivation of SHP1 during the enzymatic hydrolysis of pNPP. After a 2‐min incubation at 25 °C, the reaction was quenched by the addition of 5N NaOH, and the production of para‐nitrophenol was determined by absorbance at 405 nm. This assay format afforded a Z’‐factor of 0.70 (Figure S1B), indicating a robust screen to reliably identify hit molecules. To enhance the probability of discovering covalent ligands with inherent preference for SHP1, we also counter‐screened the same library against SHP2, the closest homolog of SHP1, and two other widely studied PTPs, PTP1B and PTPN22 (also called LYP). […] Among these, 31 were repurchased based on their observed preference for SHP1 and structural diversity, 11 of which were confirmed as potential covalent inhibitors for SHP1 based on the time dependency of their half‐maximal inhibition concentration (IC50) values determined with a 10‐min and 60‐min preincubation time, respectively (Table 1).
To further confirm the time-dependent inhibition and determine the IC50 of acquired hits, repurchased compounds from Enamine were serially diluted in a 96-well plate, followed by the addition of proteins at 200 nM. After 10-minute and 60-minute preincubation, 2 µL of the mixture was transferred into 100 µM 6,8-Difluoro-4-Methylumbelliferyl Phosphate (DiFMUP, Invitrogen, cat# D6567) at a final volume of 200 µL. The reaction was allowed to proceed for 5 minutes and quenched by the addition of 40 µl of a 160 µM solution of bpV(Phen) (Sigma-Aldrich, cat# SML0889). The fluorescence signal was measured using a CLARIOstar Plus Microplate Spectrophotometer (BMG Labtech) using excitation and emission wavelengths of 340 nm and 450 nm, respectively. Data were fitted using Prism GraphPad 10.1.1.

The target of assay [3] is T1, SHP1. Nature of the assay: Vanadate protection jump-dilution experiment. Format: biochemical. The settings on record: 500 µM sodium orthovanadate, 30 min. As for the experimental part:
To further understand the mode of M029 action and ascertain whether M029 binds the SHP1 active site or a yet undefined novel site in SHP1, we performed a vanadate (VO4 ^3−) protection experiment. Vanadate is a reversible and competitive PTP inhibitor,^[ [76], [77] ^] and thus excessive vanadate would be expected to fully occupy the PTP active site and prevent covalent modifications of residues within the active site pocket. In this assay, SHP1 was co‐incubated with 30 µM M029 and 500 µM sodium orthovanadate or vehicle control for 30 min. The SHP1‐inhibitor complex was then rapidly diluted 100‐fold into a buffered solution containing 10 mM pNPP, and immediately, the absorbance at 405 nm was monitored over time to determine the remaining phosphatase activity.

T1 sequence (P29350 245-543): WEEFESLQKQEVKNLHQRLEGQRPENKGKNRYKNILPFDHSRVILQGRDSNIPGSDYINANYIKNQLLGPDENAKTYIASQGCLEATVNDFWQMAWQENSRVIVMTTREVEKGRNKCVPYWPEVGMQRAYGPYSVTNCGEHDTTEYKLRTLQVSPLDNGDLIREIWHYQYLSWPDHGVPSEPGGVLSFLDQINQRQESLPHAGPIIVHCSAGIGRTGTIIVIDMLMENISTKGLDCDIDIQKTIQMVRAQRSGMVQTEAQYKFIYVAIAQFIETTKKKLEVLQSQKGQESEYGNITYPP

For the compound `CC(=O)Nc1ccc(S(=O)(=O)Nc2sccc2C#N)cc1` [M054, N-(4-(N-(3-cyanothiophen-2-yl)sulfamoyl)phenyl)acetamide], the IL-2 secretion entry in the assay with IL-2 in Jurkat T cells is “neither impacted”. Further, the “phosphorylation levels of LCK, PLCγ, and ERK1/2” value in assay [1] was “neither impacted”. Also, on SHP1 [2], the “SHP1 inhibitory activity (in words)” value was “loses the ability to inactivate SHP1”.
In the case of `O=C(CCl)Nc1ccccc1` [PhClAc, reference compound], the IL-2 secretion entry in the assay on IL-2 in Jurkat T cells is “neither impacted”. The “phosphorylation levels of LCK, PLCγ, and ERK1/2” value in assay [1] was “neither impacted”. The “SHP1 inhibitory activity (in words)” value on SHP1 [2] was “inactive against SHP1”.
On to `[Na+].[Na+].[Na+].[O]=[V]([O-])([O-])[O-]` [sodium orthovanadate, reference compound], for which the “SHP1 activity after 100-fold dilution of vanadate complex” value at SHP1 [3] was “fully recovered activity”.
